Data: PMC11672400, “Synthesis, Spectroscopic Characterization, Structural Analysis, and Evaluation of Anti-Tumor, Antimicrobial, and Antibiofilm Activities of Halogenoaminopyrazoles Derivatives” (Antibiotics, 2024)
≈ marks a conversion by molar mass, not a printed value. Read-outs that look alike come from different tables or passages of the source.

Assays:
[1] = system: Staphylococcus aureus ATCC25923; assay: Qualitative evaluation of antimicrobial activity (inhibition zone, spot on agar); format: cell-based; parameters: key: (+) inhibited bacterial growth; (-) did not inhibit bacterial growth; conditions: 0.06 g/2 mL DMSO, 5 µL spot
Experimental: (§1) For testing the antimicrobial/antibiofilm activity, the concentration of the studied compounds was identical to 0.06 g/2 mL DMSO. 0.5 Standard McFarland suspension was used, which was inoculated onto Mueller Hinton agar plates, (Remel, Lenexa, KS, USA), 5 µL of each compound was spotted and incubated overnight at 37 °C. Antimicrobial activity was observed as zones of inhibition formed around the spot.

[2] = system: Pseudomonas aeruginosa ATCC27853; assay: as above; format: cell-based; parameters: key: (+) inhibited bacterial growth; (-) did not inhibit bacterial growth; conditions: 0.06 g/2 mL DMSO, 5 µL spot
Experimental: as §1

[3] = system: Escherichia coli ATCC25922; assay: as above; format: cell-based; parameters: key: (+) inhibited bacterial growth; (-) did not inhibit bacterial growth; conditions: 0.06 g/2 mL DMSO, 5 µL spot
Experimental: as §1

[4] = system: Enterococcus faecalis ATCC29212; assay: as above; format: cell-based; parameters: key: (+) inhibited bacterial growth; (-) did not inhibit bacterial growth; conditions: 0.06 g/2 mL DMSO, 5 µL spot
Experimental: as §1

[5] = system: HEp-2 epithelial tumor cells; assay: MTT cell viability / anti-tumor activity; conditions: Homo sapiens, read-out: Cell viability on Hep2 cells (%)
[6] = MTT cell viability / cytotoxicity on normal fibroblasts; format: cell-based, mouse; conditions: mouse, NCTC clone 929 (L929) mouse fibroblast cells
Text: Merck chemicals were utilized.
Untreated cells were used as control, considered 100% viable cells.

[7] = system: Staphylococcus aureus ATCC25923; assay: MIC by serial microdilution in liquid medium; format: cell-based; conditions: 24 h, 37 °C; for MIC: Staphylococcus aureus, ATCC25923, read-out: Minimum inhibitory concentration, Staphylococcus aureus ATCC25923
Experimental: (§2) The minimum inhibitory concentrations (MIC) were determined by the serial microdilution method in a liquid medium (Tryptone Soy Broth), on 96-well plates. Serial binary dilutions of the compound stock solution (10 mg/mL in DMSO) were carried out in 90 µL of culture medium and 10 µL of 10^6 CFU/mL (Colony Forming Units) microbial suspension. Each test included a positive control (wells with culture medium and microbial suspension) and a negative control for medium sterility. After incubation at 37 °C for 24 h the plates were visually examined, and optical density was measured at 620 nm. […] The MIC value (µg/mL) for the chemical compound was determined by the concentration in the final well without bacterial growth. All experiments were performed in triplicate.

[8] = system: Pseudomonas aeruginosa ATCC27853; assay: MIC by serial microdilution in liquid medium; format: cell-based; conditions: Pseudomonas aeruginosa, ATCC27853; 24 h, 37 °C; read-out: Minimum inhibitory concentration, Pseudomonas aeruginosa ATCC27853
Experimental: as §2

[9] = system: Escherichia coli ATCC25922; assay: MIC by serial microdilution in liquid medium; format: cell-based; conditions: 24 h, 37 °C; for MIC: Escherichia coli, ATCC25922, read-out: Minimum inhibitory concentration, Escherichia coli ATCC25922
Experimental: as §2

[10] = system: Enterococcus faecalis ATCC29212; assay: MIC by serial microdilution in liquid medium; format: cell-based; conditions: Enterococcus faecalis, ATCC29212; 24 h, 37 °C; read-out: Minimum inhibitory concentration, Enterococcus faecalis ATCC29212
Experimental: as §2

[11] = system: Staphylococcus aureus ATCC25923; assay: Antibiofilm assay (crystal violet), MBIC; format: cell-based; conditions: 24 h, 37 °C; for minimal effective concentration: Staphylococcus aureus, ATCC25923, read-out: Minimum biofilm inhibition concentration (MBIC), Staphylococcus aureus ATCC25923
Experimental: (§3) Microorganisms were grown in 96-well plates filled with nutrient broth along with test substances, followed by incubation at 37 °C for 24 h. Plates were cleaned and rinsed thrice using SPW solution (sterile physiological water). After that, the attached cells were treated with 110 μL of methanol for 5 min, and then the methanol was removed by turning it upside down. […] Once stained, the solution was removed, and the plates were washed with running tap water. […] The antimicrobial/antibiofilm activity of the compounds was evaluated against two antibiotics, commercial formulations of metronidazole and nitrofurantoin.

[12] = system: Pseudomonas aeruginosa ATCC27853; assay: Antibiofilm assay (crystal violet), MBIC; format: cell-based; conditions: Pseudomonas aeruginosa, ATCC27853, 24 h, 37 °C, read-out: Minimum biofilm inhibition concentration (MBIC), Pseudomonas aeruginosa ATCC27853
Experimental: as §3

[13] = system: Escherichia coli ATCC25922; assay: Antibiofilm assay (crystal violet), MBIC; format: cell-based; conditions: Escherichia coli, ATCC25922, 24 h, 37 °C, read-out: Minimum biofilm inhibition concentration (MBIC), Escherichia coli ATCC25922
Experimental: as §3

[14] = system: Enterococcus faecalis ATCC29212; assay: Antibiofilm assay (crystal violet), MBIC; format: cell-based; conditions: Enterococcus faecalis, ATCC29212, 24 h, 37 °C, read-out: Minimum biofilm inhibition concentration (MBIC), Enterococcus faecalis ATCC29212
Experimental: as §3

SMILES	Qualitative antimicrobial activity, Staphylococcus aureus ATCC25923 [1]	Qualitative antimicrobial activity, Pseudomonas aeruginosa ATCC27853 [2]	Qualitative antimicrobial activity, Escherichia coli ATCC25922 [3]	Qualitative antimicrobial activity, Enterococcus faecalis ATCC29212 [4]	viability at 3.1 µg/mL ([5]; HEp-2, 24 h)	viability at 6.25 µg/mL ([5]; HEp-2, 24 h)	viability at 12.5 µg/mL ([5]; HEp-2, 24 h)	viability at 25 µg/mL ([5]; HEp-2, 24 h)	viability at 50 µg/mL ([5]; HEp-2, 24 h)	viability at 3.1 µg/mL ([5]; HEp-2, 48 h)	viability at 6.25 µg/mL ([5]; HEp-2, 48 h)	viability at 12.5 µg/mL ([5]; HEp-2, 48 h)	viability at 25 µg/mL ([5]; HEp-2, 48 h)	viability at 50 µg/mL ([5]; HEp-2, 48 h)	viability at 24 h, 3.1 µg/mL [6]	viability at 48 h, 3.1 µg/mL [6]	viability at 24 h, 6.25 µg/mL [6]	viability at 48 h, 6.25 µg/mL [6]	viability at 24 h, 12.5 µg/mL [6]	viability at 48 h, 12.5 µg/mL [6]	other results
Cc1nn(CNc2ccc(Br)cc2)c(C)c1[N+](=O)[O-] [4c, N-[(3,5-dimetyl-4-nitro-1H-pyrazol-1-yl)-methyl]-4-bromoaniline]	-	-	-	-	101 ± 2.04%	103 ± 2.31%	100 ± 3.15%	98.7 ± 1.83%	92.64 ± 0.9%	116 ± 2.55%	104.2 ± 0.88%	99.6 ± 2.32%	82.6 ± 3.28%	70.2 ± 1.91%	99.2 ± 0.97%	99.67 ± 0.71%	97.1 ± 3.04%	98.8 ± 1.92%	95.6 ± 0.62%	97.2 ± 3.5%	viability at 24 h, 25 µg/mL [6]: 95.5 ± 2.14%; viability at 48 h, 25 µg/mL [6]: 95.6 ± 2.93%; viability at 24 h, 50 µg/mL [6]: 91.1 ± 3.04%; viability at 48 h, 50 µg/mL [6]: 81.5 ± 3.26%; melting point: 118 to 120 °C; MIC [7]: 930 ± 0.04 µg/mL (≈ 2860 µM); MIC [8]: 930 ± 1.08 µg/mL (≈ 2860 µM); MIC [9]: 930 ± 1.05 µg/mL (≈ 2860 µM); MIC [10]: 930 ± 0.03 µg/mL (≈ 2860 µM); minimal effective concentration [11]: 930 ± 0.06 µg/mL; minimal effective concentration [12]: 930 ± 0.52 µg/mL; minimal effective concentration [13]: 930 ± 0.11 µg/mL; minimal effective concentration [14]: 930 ± 1.09 µg/mL
Cc1nn(CNc2cccc(Cl)c2)c(C)c1[N+](=O)[O-] [4e, N-[(3,5-dimetyl-4-nitro-1H-pyrazol-1-yl)-methyl]-3-chloroaniline]	+	+	+	-	106.5 ± 0.73%	103.7 ± 0.28%	99.7 ± 0.32%	89.15 ± 0.88%	56.46 ± 0.42%	98.1 ± 2.88%	97.1 ± 1.78%	94.8 ± 2.84%	81.7 ± 2.38%	54.9 ± 2.76%	93.1 ± 2.76%	89.5 ± 2.24%	94.3 ± 2.92%	98.3 ± 2.03%	97.8 ± 0.99%	93.2 ± 2.94%	viability at 24 h, 25 µg/mL [6]: 95.6 ± 2.19%; viability at 48 h, 25 µg/mL [6]: 92.2 ± 0.89%; viability at 24 h, 50 µg/mL [6]: 63.5 ± 3.18%; viability at 48 h, 50 µg/mL [6]: 63.2 ± 2.56%; melting point: 110 to 111 °C; Minimum inhibitory concentration, Staphylococcus aureus ATCC25923 [7]: 460 ± 0.03 µg/mL (≈ 1640 µM); MIC [7]: 460 µg/mL (≈ 1640 µM); MIC [8]: 930 ± 0.53 µg/mL (≈ 3310 µM); Minimum inhibitory concentration, Escherichia coli ATCC25922 [9]: 460 ± 0.52 µg/mL (≈ 1640 µM); MIC [9]: 460 µg/mL (≈ 1640 µM); MIC [10]: 930 ± 0.02 µg/mL (≈ 3310 µM); Minimum biofilm inhibition concentration (MBIC), Staphylococcus aureus ATCC25923 [11]: 460 ± 0.04 µg/mL; minimal effective concentration [11]: 460 µg/mL
